According to US10538567B2, “Compounds as peptidic trigonal GLP1/glucagon/GIP receptor agonists” (priority 2016, dated 2020):
Numbered stars: 1 amine (or outer) side, 2 acyl side, 3 side chain; on linkers, the order of the positions; unused ones are H or OH. Square brackets hold non-standard residues; d marks the D form. Side chains are listed from the residue outwards. Peptide text beside a SMILES is read from it. * marks the point of attachment. γGlu = O=C(O)[C@H](CCC(=O)[*:2])N[*:1]; Palmitoyl = CCCCCCCCCCCCCCCC(=O)*; Aib = CC(C)(N)C(=O)O

Key:
[1] = Thioflavin T (ThT) assay for physical stability (fibrillation); format: physicochemical; conditions: 3 mg/ml, 100 mM acetate pH 4.5 with m-cresol, 37° C. shaking
In short: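 Peptides at 3 mg/ml final with 100 μM ThT final in 100 mM acetate pH 4.5 containing 2.7 mg/mL m-cresol, eight replicates. Stressed at 37° C by repeated cycles of 10 s shaking at 960 rpm and 50 s rest. Fluorescence read every 20 minutes; lag time in hours taken from the sigmoidal kinetic curve.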

[2] = Chemical stability assessment, UPLC-UV purity loss in buffer system A; format: physicochemical; conditions: 1 mg/ml, 25 mM acetate buffer pH 4.5 with m-cresol
Experimental: Prior to the chemical stability measurement of a peptide batch, its purity was determined through UPLC/MS. For stability testing the target concentration was 1 mg pure compound/ml. Therefore solutions from solid samples were prepared in a buffer system with a concentration of 1 mg/mL compound based on the previously determined % purity:
Chemical stability buffer system A) 25 mM acetate buffer pH 4.5, 3 mg/mL L-Methionine, 2.7 mg/mL m-cresol, 18 mg/mL Glycerol 85% Chemical stability buffer system B) 25 mM phosphate buffer pH 6.0, 3 mg/mL L-Methionine, 2.7 mg/mL m-cresol, 18 mg/mL Glycerol 85%
Peptide solutions were filtered through […] pore size and filled into aliquots under aseptic conditions. At starting point, UPLC-UV was performed by injection of 2 μl of the undiluted sample.
For chemical stability testing, aliquots were stored for 28 days at 5 and 40° C. After this time course the samples were centrifuged for 15 min at 2500 RCF. Then 2 μl of the undiluted supernatant were analysed with UPLC-UV.
The chemical stability was rated through the relative loss of purity calculated by the equation: [(purity at starting point)−(purity after 28 days at X° C.)]/(purity at starting point)]*100%
The purity is calculated as
[(peak area peptide)/(total peak area)]*100%
Peptide samples were prepared in Chemical stability buffer system A and the stability was assessed as described in Methods.

[3] = tested on: female diabetic db/db mice; assay: Acute effects after s.c. treatment on blood glucose in non-fasting female diabetic db/db mice; format: in vivo; conditions: single 30 μg/kg s.c.
Experimental: Female healthy, lean BKS.Cg-(lean)/OlaHsd and diabetes-prone, obese BKS.Cg-+Lepr^db/+Lepr^db/OlaHsd mice were ordered group housed from Envigo RMS Inc., shipped group housed and remained group housed in shoebox caging with wood chip bedding until day 15 of the predose phase. At the study start mice were approximately 12 weeks old.
Mice were housed under vivarium conditions including a 12 h light/dark cycle (light phase 04:00 AM-4:00 PM), room temperatures between 23-26° C. and a relative humidity between 30-70%. All animals had free access to water and Purina Fomulab Diet 5008.
On predose day 9 blood glucose and body mass (approximately between 08:00-10:00 AM) as well as HbA1c measurements were performed. On day 15 of the predose phase animals were assigned to treatment groups (n=8) and to new cages to match mean HbA1c and body masses between all db/db groups. An age-matched lean group was included in the study as a healthy, lean reference.
Prior to day 1 of the dosing phase, the test article was diluted with Phosphate Buffered Saline (PBS, Gibco, without CaCl2 and MgCl2) to a concentration of 1 mg/mL and aliquots of this stock solution were stored at approximately ≤−60° C. On day 1 of the dosing phase the stock aliquot was thawed and the injected test article solution was prepared fresh by diluting it with PBS to achieve the desired concentration.
On Day 1 of the dosing phase db/db mice were either treated once with a s.c. injection of PBS-vehicle or 30 μg/kg test article. The lean reference group was treated once with a s.c. injection of PBS-vehicle. The dosing was initiated and completed between 08:00 and 10:00 AM. The applied volume was 5 ml/kg and the dose was adjusted to the most recent body mass recording of each individual.
Animals had unlimited access to water and feed during the experiment. On day 1 of the dosing phase approximately 5 μL of blood were collected via tail clips at minute −30 and 0 prior to any other inlife activities. At minute 0 mice received a s.c. dose of either PBS-vehicle or 30 μg/kg test article. Further blood samples were harvested at hour 0.25, 0.5, 1, 1.5, 2, 3, 4, 6, 8, and 24 post-dose. Glucose measurements were performed in whole blood using AlphaTRAK glucometers. If the glucose concentrations of two measurements differed by more than 20 mg/dL a third value was recorded. The Area Under the Curve (AUC) for blood glucose was calculated via the trapezoid method and for the duration of the 24 post-dose hours.
In the Figures data are depicted as means±SEM. […] A One Way Analysis of Variance and multiple comparisons (Dunnett's Method) were performed comparing the group of diabetic, obese db/db vehicle mice (n=8) with each diabetic, obese db/db test article treated mice (n=8). […] Non-diabetic, lean-vehicle group data are depicted in the Figures serving as a reference dataset for the non-obese, non-diabetic state.

| SMILES | Lag time before increase [1] [h] | Chemical stability [relative purity loss 28 days 40° C.] (%) at pH 4.5 [2] [%] | mean blood glucose concentration 24 hours post-dose relative to baseline [3] | time to normalise hyperglycemia to the non-fasting blood glucose concentrations of lean reference mice [3] [h] |
| --- | --- | --- | --- | --- |
| CCCCCCCCCCCCCCCC(=O)N[C@@H](CCC(=O)N[C@@H](CCC(=O)NCCCC[C@H](NC(=O)[C@H](CC(C)C)NC(=O)[C@H](CCCCN)NC(=O)[C@H](CO)NC(=O)[C@H](CC(C)C)NC(=O)[C@H](CC(=O)O)NC(=O)[C@H](CO)NC(=O)[C@@H](NC(=O)[C@H](Cc1ccccc1)NC(=O)[C@@H](NC(=O)CNC(=O)[C@H](Cc1c[nH]cn1)NC(=O)C(C)(C)NC(=O)[C@@H](N)Cc1c[nH]cn1)[C@@H](C)O)[C@@H](C)O)C(=O)N[C@@H](CCC(=O)O)C(=O)N[C@@H](CCC(=O)O)C(=O)N[C@@H](CCC(N)=O)C(=O)N[C@@H](CCCNC(=N)N)C(=O)N[C@@H](CCC(N)=O)C(=O)N[C@@H](CCCCN)C(=O)N[C@@H](CCC(=O)O)C(=O)N[C@@H](Cc1ccccc1)C(=O)N[C@H](C(=O)N[C@@H](CCC(=O)O)C(=O)N[C@@H](Cc1c[nH]c2ccccc12)C(=O)N[C@@H](CC(C)C)C(=O)N[C@@H](CCCCN)C(=O)N[C@@H](C)C(=O)NCC(=O)NCC(=O)N[C@@H](Cc1c[nH]cn1)C(=O)N1CCC[C@H]1C(=O)N[C@@H](CO)C(=O)NC(C)(C)C(=O)N[C@@H](CCCCN)C(=O)N1CCC[C@H]1C(=O)N1CCC[C@H]1C(=O)N1CCC[C@H]1C(=O)N[C@@H](CCCCN)C(N)=O)[C@@H](C)CC)C(=O)O)C(=O)O [SEQ ID NO: 6, H-Aib-H-G-T-F-T-S-D-L-S-K-L-K[gGlu-gGlu-Palm]-E-E-Q-R-Q-K-E-F-I-E-W-L-K-A-G-G-H-P-S-Aib-K-P-P-P-K-NH2] | >45 | 7.1 | at or close to baseline | – |
| CCCCCCCCCCCCCCCC(=O)N[C@@H](CCC(=O)N[C@@H](CCC(=O)NCCCC[C@H](NC(=O)[C@H](CC(C)C)NC(=O)[C@H](CCCCN)NC(=O)[C@H](CO)NC(=O)[C@H](CC(C)C)NC(=O)[C@H](CC(=O)O)NC(=O)[C@H](CO)NC(=O)[C@@H](NC(=O)[C@H](Cc1ccccc1)NC(=O)[C@@H](NC(=O)CNC(=O)[C@H](Cc1c[nH]cn1)NC(=O)C(C)(C)NC(=O)[C@@H](N)Cc1c[nH]cn1)[C@@H](C)O)[C@@H](C)O)C(=O)N[C@@H](CCC(=O)O)C(=O)N[C@@H](CCC(=O)O)C(=O)N[C@@H](CCC(N)=O)C(=O)N[C@@H](CCCNC(=N)N)C(=O)N[C@@H](CCC(N)=O)C(=O)N[C@@H](CCCCN)C(=O)N[C@@H](CCC(=O)O)C(=O)N[C@@H](Cc1ccccc1)C(=O)N[C@H](C(=O)N[C@@H](CCC(=O)O)C(=O)N[C@@H](Cc1c[nH]c2ccccc12)C(=O)N[C@@H](CC(C)C)C(=O)N[C@@H](CCCCN)C(=O)N[C@@H](C)C(=O)N[C@H](C)C(=O)NCC(=O)N[C@@H](Cc1c[nH]cn1)C(=O)N1CCC[C@H]1C(=O)N[C@@H](CO)C(=O)NC(C)(C)C(=O)N[C@@H](CCCCN)C(=O)N1CCC[C@H]1C(=O)N1CCC[C@H]1C(=O)N1CCC[C@H]1C(=O)N[C@@H](CCCCN)C(N)=O)[C@@H](C)CC)C(=O)O)C(=O)O [SEQ ID NO: 7, H-Aib-H-G-T-F-T-S-D-L-S-K-L-K[gGlu-gGlu-Palm]-E-E-Q-R-Q-K-E-F-I-E-W-L-K-A-dAla-G-H-P-S-Aib-K-P-P-P-K-NH2] (H-H[Aib]HGTFTSDLSKLK([γGlu-γGlu-Palmitoyl])EEQRQKEFIEWLKA[dA]GHPS[Aib]KPPPK-NH2) | >45 | 8.1 | at baseline | ≤ 6 |
| CCCCCCCCCCCCCCCC(=O)N[C@@H](CCC(=O)N[C@@H](CCC(=O)NCCCC[C@H](NC(=O)[C@H](CC(C)C)NC(=O)[C@H](CCCCN)NC(=O)[C@H](CO)NC(=O)[C@H](CC(C)C)NC(=O)[C@H](CC(=O)O)NC(=O)[C@H](CO)NC(=O)[C@@H](NC(=O)[C@H](Cc1ccccc1)NC(=O)[C@@H](NC(=O)CNC(=O)[C@H](Cc1c[nH]cn1)NC(=O)C(C)(C)NC(=O)[C@@H](N)Cc1c[nH]cn1)[C@@H](C)O)[C@@H](C)O)C(=O)N[C@@H](CCC(=O)O)C(=O)N[C@@H](CCC(=O)O)C(=O)N[C@@H](CCC(N)=O)C(=O)N[C@@H](CCCNC(=N)N)C(=O)N[C@@H](CCC(N)=O)C(=O)N[C@@H](CCCCN)C(=O)N[C@@H](CCC(=O)O)C(=O)N[C@@H](Cc1ccccc1)C(=O)N[C@H](C(=O)N[C@@H](CCC(=O)O)C(=O)N[C@@H](Cc1c[nH]c2ccccc12)C(=O)N[C@@H](CC(C)C)C(=O)N[C@@H](CCCCN)C(=O)N[C@@H](C)C(=O)NCC(=O)NCC(=O)N1CCC[C@H]1C(=O)N1CCC[C@H]1C(=O)N[C@@H](CO)C(=O)NC(C)(C)C(=O)N[C@@H](CCCCN)C(=O)N1CCC[C@H]1C(=O)N1CCC[C@H]1C(=O)N1CCC[C@H]1C(=O)N[C@@H](CCCCN)C(N)=O)[C@@H](C)CC)C(=O)O)C(=O)O [SEQ ID NO: 8, H-Aib-H-G-T-F-T-S-D-L-S-K-L-K[gGlu-gGlu-Palm]-E-E-Q-R-Q-K-E-F-I-E-W-L-K-A-G-G-P-P-S-Aib-K-P-P-P-K-NH2] | >45 | 10.3 | at or close to baseline | – |
| CCCCCCCCCCCCCCCC(=O)N[C@@H](CCC(=O)N[C@@H](CCC(=O)NCCCC[C@H](NC(=O)[C@H](CC(C)C)NC(=O)[C@H](CCCCN)NC(=O)[C@H](CO)NC(=O)[C@H](CC(C)C)NC(=O)[C@H](CC(=O)O)NC(=O)[C@H](CO)NC(=O)[C@@H](NC(=O)[C@H](Cc1ccccc1)NC(=O)[C@@H](NC(=O)CNC(=O)[C@H](Cc1c[nH]cn1)NC(=O)C(C)(C)NC(=O)[C@@H](N)Cc1c[nH]cn1)[C@@H](C)O)[C@@H](C)O)C(=O)N[C@@H](CCC(=O)O)C(=O)N[C@@H](CCC(=O)O)C(=O)N[C@@H](CCC(N)=O)C(=O)N[C@@H](CCCNC(=N)N)C(=O)N[C@@H](CCC(N)=O)C(=O)N[C@@H](CCCCN)C(=O)N[C@@H](CCC(=O)O)C(=O)N[C@@H](Cc1ccccc1)C(=O)N[C@H](C(=O)N[C@@H](CCC(=O)O)C(=O)N[C@@H](Cc1c[nH]c2ccccc12)C(=O)N[C@@H](CC(C)C)C(=O)N[C@@H](CCCCN)C(=O)N[C@@H](C)C(=O)N[C@H](C)C(=O)NCC(=O)N1CCC[C@H]1C(=O)N1CCC[C@H]1C(=O)N[C@@H](CO)C(=O)NC(C)(C)C(=O)N[C@@H](CCCCN)C(=O)N1CCC[C@H]1C(=O)N1CCC[C@H]1C(=O)N1CCC[C@H]1C(=O)N[C@@H](CCCCN)C(N)=O)[C@@H](C)CC)C(=O)O)C(=O)O [SEQ ID NO: 9, H-Aib-H-G-T-F-T-S-D-L-S-K-L-K[gGlu-gGlu-Palm]-E-E-Q-R-Q-K-E-F-I-E-W-L-K-A-dAla-G-P-P-S-Aib-K-P-P-P-K-NH2] (H-H[Aib]HGTFTSDLSKLK([γGlu-γGlu-Palmitoyl])EEQRQKEFIEWLKA[dA]GPPS[Aib]KPPPK-NH2) | >45 | 6.9 | at or close to baseline | – |
